Experimental data taken from publication PMC10612037 (Viruses, 2023).
Structures can show the parent of a compound that is named as a salt.

Legend:
[1] = tested on: HIV-1 xxLAI; assay: microbe, parasite or virus in culture; format: cell-based; settings: Human immunodeficiency virus 1; unpassaged HIV-1 xxLAI WT stock virus
[2] = tested on: HIV-1 isolates B, C, CRF_AE, CRF_AG; format: cell-based
[3] = tested on: HIV-1 RT; parameters: method as in earlier work; settings: K65R RT; cited from earlier work
[4] = cited from earlier work
[5] = tested on: HIV-1 subtypes A, B, C, D, CRF_AE, CRF_AG; assay: Dose-response assay in TZM-GFP cells, diverse primary isolates
[6] = tested on: HIV-1 NL4-3; assay: Dose-response assay in TZM-GFP cells, NL4-3 molecular clones with RT mutations; settings: for major resistance observed: all NL4-3 mutants tested, major = >12-fold for ISL, >4-fold for TDF
[7] = tested on: HIV-1 reverse transcriptase (endogenous RT in virions); assay: Endogenous reverse transcriptase assay; format: biochemical; settings: K65R virions

## C#C[C@]1(CO)O[C@@H](n2cnc3c(N)nc(F)nc32)C[C@@H]1O [ISL, 4′-ethynyl-2-fluoro-2′-deoxyadensine]
[1]
  EC50: 3.6 nM
[2]; CRF_AE backbone
  fold more susceptible, K65R with Ser68 vs K65R with Gly68: 3 fold
  susceptibility of Ser68 compared with Gly68: more susceptible
[2]; K65R, regardless of the isolate (B, C, CRF_AE, CRF_AG)
  sensitivity of mutant relative to WT: hypersensitivity
[3]
  fold more susceptible than wildtype RT: 4 fold
[4]; early clinical studies in humans
  tolerability: well tolerated
[4]; lower dose of ISL
  effect on CD4 T cell population: without any effects on the CD4 T cell population
[4]; subsequent clinical studies, patients on ISL
  effect on CD4 T cells: decline in CD4 T cells
[5]; all subtypes (A, B, C, D, CRF_AE, CRF_AG), 8-10 isolates each
  EC50 fold change from NL4-3: no more than 1.3 fold
[6]; NL4-3 K65R
  fold more sensitive than WT (EC50): 4 fold
[6]
  major resistance observed: No major resistance

## CC(C)OC(=O)OCOP(=O)(CO[C@H](C)Cn1cnc2c(N)ncnc21)OCOC(=O)OC(C)C [TDF, Tenofovir disoproxil fumarate]
[1]
  EC50: 24.6 nM
[5]; subtype A
  EC50 fold change from NL4-3: 1.3 fold
[5]; subtype B
  EC50 fold change from NL4-3: 2.2 fold
[5]; subtype C
  EC50 fold change from NL4-3: 2.2 fold
[5]; subtype D
  EC50 fold change from NL4-3: 1.6 fold
[6]; NL4-3 K65R
  fold resistance relative to WT (EC50 fold change): 3 fold
[6]
  major resistance observed: No major resistance

## C[C@@H](Cn1cnc2c(N)ncnc21)OCP(=O)(O)OP(=O)(O)OP(=O)(O)O [TFV-DP]
[7]
  resistance phenotype (IC50 fold change from WT): conferred resistance
